Like-named read-outs stand apart in the source and are kept apart here.
Legend:
zebrafish embryos = assay: Phenotypic screen for edema and survival in zebrafish larvae at 72 hpf; conditions: number of larvae (of 36); 3 μM from 2 hpf, scored at 72 hpf
Experimental: The screen was performed in zebrafish embryos using the National Cancer Institute's Developmental Therapeutics Program (NCI/DTP) Diversity Set I. This library contains 1990 compounds selected by pharmacophore modeling to represent the more than 140,000 small molecules maintained in the NCI/DTP Open Repository. Compounds from the NCI/DTP Diversity Set I were diluted to 10 μM in E3 embryo medium (5 mM NaCl, 0.33 mM CaCl2, 0.33 mM MgSO4, and 0.17 mM KCl) in a final DMSO concentration of 0.5% and arrayed in 96-well plates. Beginning at approximately 2 hpf, embryos were transferred to each well in groups of five using a glass pipette. The plates were incubated at 28.5° C. for 70 hours. Individual wells were then scored for a dominant phenotype, representative of at least four of the five embryos. The primary objective was to identify compounds that caused edema in treated embryos at 72 hpf. Small molecules generating edema were retested once for verification, before obtaining additional compound from the NCI/DTP Open Repository.
PTBA was synthesized as described below. Hydroxyurea and aphidicolin were obtained from Sigma-Aldrich. Groups of 20 to 30 chorionated 2 hpf embryos were arrayed in individual wells of 12-well plates. E3 medium was removed with a glass pipette and replaced with 1.5 ml treatment solutions containing 0.5% DMSO in E3 with or without compound at the reported concentrations. Treatments for all studies were initiated at 2 hpf, except for the temporal studies (FIG. 6) and the HUA studies (FIG. 11). HUA studies were performed as described previously (Zhang, L., et al. Cell cycle progression is required for zebrafish somite morphogenesis but not segmentation clock function. Development 135, 2065-2070, (2008)), with the following modifications. HUA in 0.5% DMSO was added at early gastrulation (5 hpf) and PTBA was subsequently added at late gastrulation (8 hpf) to allow for penetration of the proliferation inhibitors. All embryos were incubated at 28.5° C. until the required developmental stage.
Following 70 hours of treatment (as described above), edemic phenotypes in 72 hpf larvae were scored using a phenotype-based classification system. Wild type: no visible edema or developmental delay. […] Significant effects (p<0.05) on survival were determined by two-tailed Fisher's exact test in comparison with the 0 μM PTBA treatment group.
PTBA and methyl-4-(phenylthio)butanoate were synthesized as described above. 4-(Naphthalen-2-ylthio)butanoic acid (NSC2733) and 3-(phenylthio)benzoic acid (NSC113994), were obtained from the NCI/DTP Open Repository. APHA compound 8, Apicidin, butanoic acid, PBA, 4-phenoxybutanoic acid, 5-phenylpentanoic acid, Scriptaid, TSA, and valproic acid were obtained from Sigma-Aldrich. MS-275 and SAHA were obtained from Cayman Chemical Co. 4-(phenylsulfonyl)butanoic acid was obtained from Matrix Scientific. Tubacin was a gift of Dr. Ralph Mazitschek of the Broad Institute (Cambridge, Mass.). The remaining PTBA analogs were synthesized. Three independent groups of 12 chorionated 2 hpf embryos were arrayed in individual wells of 24-well plates. E3 medium was removed with a glass pipette and replaced with 800 μl treatment solutions containing 0.5% DMSO in E3 with or without compound at the reported concentrations.
Phenotypic screening of PTBA analogs was performed identically to the concentration-response experiments detailed above. Embryos were treated with each PTBA analog from 2 to 72 hpf as described above.

renal progenitor cells = assay: In situ hybridization for lhx1a expression in 10-somite embryos (renal progenitor cell expansion); assay type: in vivo; conditions: for Lhx1a expansion caused by analog treatment, 200 nM: 200 nM from 2 hpf; for Lhx1a expansion caused by analog treatment, 400 nM: 400 nM from 2 hpf; for responders at 1.5 µM / responders at 0.2 µM / responders at 0.4 µM / responders at 0.8 µM / responders at 3 µM / EC50: Danio rerio; for EC50: first pass EC50 from percent expansion (Excel trendline), average where several experiments; as to Lhx1a expansion caused by analog treatment, 200 nM: key: effective (+); partially effective (+/−); ineffective (−); Analogs that killed all embryos at a given concentration before reaching 10 somites are listed as XX; as to Lhx1a expansion caused by analog treatment, 3 μM: key: effective (+); partially effective (+/−); ineffective (−); Analogs that killed all embryos at a given concentration before reaching 10 somites are listed as XX; as to Lhx1a expansion caused by analog treatment, 400 nM: key: effective (+); partially effective (+/−); ineffective (−); Analogs that killed all embryos at a given concentration before reaching 10 somites are listed as XX; as to Lhx1a expansion caused by analog treatment, 800 nM: key: effective (+); partially effective (+/−); ineffective (−); Analogs that killed all embryos at a given concentration before reaching 10 somites are listed as XX
In short: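 Zebrafish embryos treated with compound, then colorimetric whole-mount in situ hybridization (65° C) for lhx1a mRNA at 10 somites. Embryos with expanded kidney field counted manually as percent of total. EC50 taken as 50% point of percent-expansion trendline; compounds also classed effective, partial or ineffective versus PTBA at matched concentration.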

[1] = 800 nM from 2 hpf, 10-somite embryos
[2] = 1.5 μM from 2 hpf, 10-somite embryos
[3] = 3 μM from 2 hpf, 10-somite embryos
[4] = 1.5 μM from 2 hpf, 10-somite embryos, read-out: lhx1a expansion, percent of treated embryos
[5] = percent of embryos with expanded kidney field, 200 nM, read-out: Expansion of Cells (including repeats* and recounts**) 200 nM
[6] = percent of embryos with expanded kidney field, 400 nM, read-out: Expansion of Cells (including repeats* and recounts**) 400 nM
[7] = percent of embryos with expanded kidney field, 800 nM, read-out: Expansion of Cells (including repeats* and recounts**) 800 nM
[8] = percent of embryos with expanded kidney field, 1.5 μM, read-out: Expansion of Cells (including repeats* and recounts**) 1.5 μM
[9] = percent of embryos with expanded kidney field, 3 μM, read-out: Expansion of Cells (including repeats* and recounts**) 3 μM
[10] = percent of embryos with expanded kidney field, 3 μM
[11] = read-out: lhx1a expansion, percent of treated embryos, 400 nM from 2 hpf, 10-somite embryos
[12] = read-out: lhx1a expansion, percent of treated embryos, 800 nM from 2 hpf, 10-somite embryos
[13] = 3 μM from 2 hpf, 10-somite embryos, read-out: lhx1a expansion, percent of treated embryos

Row | Structure (SMILES) | Dead (zebrafish embryos) | Edemic 1 (E1) (zebrafish embryos) | Edemic 2 (E2) (zebrafish embryos) | Edemic 3 (E3) (zebrafish embryos) | Wild-type (WT) (zebrafish embryos) | Lhx1a expansion caused by analog treatment, 200 nM (renal progenitor cells; 10-somite embryos) | Lhx1a expansion caused by analog treatment, 400 nM (renal progenitor cells; 10-somite embryos) | Lhx1a expansion caused by analog treatment, 800 nM (renal progenitor cells; [1]) | Lhx1a expansion caused by analog treatment, 1.5 μM (renal progenitor cells; [2]) | Lhx1a expansion caused by analog treatment, 3 μM (renal progenitor cells; [3]) | responders at 1.5 µM (renal progenitor cells; [4]) [%] | responders at 0.8 µM (renal progenitor cells; [7]) [%] | responders at 1.5 µM (renal progenitor cells; [8]) [%] | responders at 3 µM (renal progenitor cells; [9]) [%] | further results
1 | COC(=O)CCCSc1ccc(C)cc1 [UPHD-00026, methyl 4-[(4-methyl-phenyl)sulfanyl]butanoate] | 11 | 0 | 2 | 23 | 0 | − | − | + | + | + | 100 | 49 | 100 | 100 | responders at 0.2 µM (renal progenitor cells; [5]): 3%; responders at 0.4 µM (renal progenitor cells; [6]): 14%
2 | O=C(CCCSc1ccc(Cl)cc1)NO [UPHD-00027, 4-[(4-chloro-phenyl)sulfanyl]-N-hydroxybutanamide] | 14 | 0 | 0 | 22 | 0 |  |  | +/− | + | + | 97 | 17 | 97 | 94 | 
3 | Cc1ccc(SCCCC(=O)NO)cc1 [UPHD-00028, N-hydroxy-4-[(4-methyl-phenyl)sulfanyl]butanamide] | 22 | 0 | 0 | 14 | 0 | − | − | + | + | + | 97 | 61 | 97 | 100 | responders at 0.4 µM (renal progenitor cells; [6]): 9%; Expansion of Cells (including repeats* and recounts**) 3 μM (renal progenitor cells; [10]): 100%
4 | O=C(CCCSc1ccc(F)cc1)NO [UPHD-00029, 4-[(4-fluoro-phenyl)sulfanyl]-N-hydroxybutanamide] | 28 | 0 | 0 | 8 | 0 | − | +/− | + | + | + | 100 |  | 100 | 100 | responders at 0.2 µM (renal progenitor cells; [5]): 6%; responders at 0.4 µM (renal progenitor cells; [11]): 35%; responders at 0.8 µM (renal progenitor cells; [12]): 60%; EC50 (renal progenitor cells): 1310 nM
5 | COC(=O)CCCSc1ccc(F)cc1 [UPHD-00030, methyl 4-[(4-fluoro-phenyl)sulfanyl]butanoate] | 36 | 0 | 0 | 0 | 0 | +/− | +/− | + | + |  | 100 |  | 100 |  | lhx1a expansion, percent of treated embryos (renal progenitor cells; [1]): 64%; lethality before the 10-somite stage (renal progenitor cells; 3 μM): killed all treated embryos; responders at 0.2 µM (renal progenitor cells; read-out: lhx1a expansion, percent of treated embryos, 200 nM from 2 hpf, 10-somite embryos): 22%; responders at 0.4 µM (renal progenitor cells; [11]): 26%; responders at 0.8 µM (renal progenitor cells; [12]): 64%; EC50 (renal progenitor cells): 485 nM; Expansion of Cells (including repeats* and recounts**) 3 μM (renal progenitor cells; [10]): All dead
6 | CCC(C)OC(=O)CCCSc1ccccc1 (centres unmarked) [VNK-I-154] | 1 | 19 | 12 | 2 | 2 |  |  | +/− | + | + | 89 |  |  |  | 
7 | COc1ccc(SCCCC(=O)NO)cc1 [VNK-I-289, 4-[(4-methoxy-phenyl)sulfanyl]-N-hydroxybutanamide] | 0 | 20 | 0 | 0 | 16 |  |  |  |  | +/− |  |  |  |  | responders at 3 µM (renal progenitor cells; [13]): 31%
8 | COC(=O)CCCSc1ccc(Br)cc1 [VNK-I-290] | 0 | 27 | 1 | 0 | 8 |  |  |  |  | +/− |  |  |  |  | responders at 3 µM (renal progenitor cells; [13]): 74%
9 | O=C(CCCSc1ccc(Br)cc1)NO [VNK-I-292, 4-[(4-bromo-phenyl)sulfanyl]-N-hydroxybutanamide] | 0 | 23 | 12 | 0 | 1 |  |  |  | +/− | + | 47 |  |  |  | 
10 | O=C(O)CCCNc1ccccc1 [VNK-I-300, 4-(phenylamino)butanoic acid] | 0 | 1 | 0 | 0 | 35 |  |  |  |  | − |  |  |  |  | 
